Test results reported in patent US10202604B2, “Methods of using microRNA-141” (Stemirna Therapeutics Co., Ltd., priority 2016, dated 2019).

Tests used:
prostate cancer tumors = assay: Ki-67+ cells in miR-141-overexpressing tumors; format: in vivo
CD44hi PC3 cells = assay: Dorsal prostate implantation, tumor growth and lung metastasis; format: in vivo, NOD/SCID mice; details: miR-141 via lentiviral infection; 100,000 cells into dorsal prostate
Procedure: FACS-purified CD44^hi luciferase/GFP double-tagged PC3 cells were infected with Lenti-141 or Lenti-ctl (MOI 10) and 100,000 cells each were injected into the DP of NOD/SCID mice (n=9). Tumor growth and metastasis were monitored using bioluminescence imaging (IVIS). FIGS. 2A-2B show the representative images and quantification (in total photon flux) of primary tumors before termination of the experiment. FIGS. 2C-2D show the representative images (FIG. 2C) and quantification (FIG. 2D) of lung metastasis with the primary tumors covered. […] CD44^+ Du145 cells were infected with Lenti-ctl or Lenti-141 (MOI 10; 72 h) and cells were then injected into the DP of male NOD/SCID mice. Mice were terminated at day 56 and organs including lung were harvested for analyzing metastasis. Shown were representative IHC images of humanspecific Ki-67 staining. […] LAPC9-GFP cells were infected with TRIPZ-NS or TRIPZ-141 inducible lentivirus (MOI 10, 72 h) and CD44^+ cells were purified out by FACS. 100,000 cells each were injected into the DP of NOD/SCID mice and, from day 16 on, two groups of mice were treated with Dox (200 mg/kg body weight in feed). Tumor volumes were measure twice weekly (FIG. 2F). Mice were terminated at day 40 and endpoint tumors were harvested and weighted (FIG. 2G; incidence indicated in bars). […]

[1] = tested on: cultured as well as primary patient human prostate cancer cells; assay: Matrigel invasion assay; format: cell-based
Procedure: (§1) For Boyden Chamber invasion assays, Biocoat Matrigel Invasion Chamber (BD, Franklin Lakes, N.J.) was employed following the manufacturer's instructions. Briefly, 100,000-200,000 of prostate cancer cells after transfection with […]/miR-141 oligos or infection with miR-141 over-expressing lentivirus were seeded into each well. Medium with 20% fetal bovine serum was used in the lower chamber as chemo-attractant. After 20 h, cells were fixed and stained using HEMA stain. Representative images were taken for each membrane and cells were counted. Migration assays were simultaneously performed in control wells using identical protocol with Transwell (Costar; […]) without Matrigel. In some experiments, Du145 cells were plated one day before and treated with 1, 2, and 5 μM of DZNep (3-Deazaneplanocin A) for 96 h after which cells were harvested and used in invasion assays and Western blot.

[2] = tested on: epithelial to mesenchymal transition markers in Du145 cells; assay: qPCR analysis of epithelial to mesenchymal transition markers; format: cell-based, human
Procedure: FIGS. 3A-3J show partial suppression of epithelial to mesenchymal transition by miR-141 and CD44 as a direct target of miR-141. FIGS. 3A-3B show qPCR analysis of epithelial to mesenchymal transition markers in bulk (FIG. 3A) or CD44^+ (FIG. 3B) Du145 cells transfected with the miR-141 oligos (30 nM; 48 h). Results were presented as the relative expression levels over the cells transfected with the NC oligos. […] GAPDH was used as control and the relative protein levels after normalizing to GAPDH and NC controls were indicated below each lane. […] Shown below is the actual sequence in the region with the mutated miR-141 binding sequence indicated in grey (below). […] Shown are representative images. […] Du145 cells were co-transfected with NC or miR-141 oligos (30 nM) together with pBabe empty vector or pBabe-CD44 vector. After 48 h, cells were harvested for invasion assays. Bars, mean±SD. *, P<0.05; **, P<0.01.
(§2) Total RNA was extracted using microRNA isolation kit (Life Technologies) according to the manufacturer's instructions. microRNA qPCRs were performed using TaqMan microRNA assays (Life Technologies). qPCR data for microRNAs were normalized to RNU48 whereas qPCR data for mRNAs were normalized to GAPDH.

EZH2 = EZH2 mRNA and protein levels; format: cell-based, human
Procedure: FIG. 6A: Putative binding site of miR-141 in EZH2 3′-UTR. […] FIG. 6C is a qPCR analysis of EZH2 mRNA levels in CD44^+ PCa cells. Bars, mean±SD. *P<0.05; **P<0.01. […] Bars, mean±SD. **P<0.01. […] Western blotting was performed in PC3 and Du145 cells transfected with NC (60 nM) or miR-141 (30 or 60 nM) oligos (72 h). Relative protein levels were measured by densitometry and normalized to GAPDH levels (indicated below). […] Du145 cells plated one day before were treated with 1, 2, and 5 μM of DZNep for 96 h and then cells were harvested for invasion assays. **P<0.01. Inset, WB showing reduced EZH2 proteins by DZNep. […] Du145 cells were transfected with 10 nM scramble siRNA (siCon) or EZH2-targeting siRNAs (siEZH2) or siEZH2 plus anti-miR-141 (30 nM). 48 h later, cells were harvested for invasion assays. Bars, mean±SD. **P<0.01. […] Du145 cells were co-transfected with 30 nM NC or miR-141 oligos together with empty vector or pCMV-EZH2 construct. After 48 h, cells were harvested for invasion assay. Bars, mean±SD. **P<0.01.
as §2
as §1, with “In some experiments, Du145 cells were plated one day before and treated with 1, 2, and 5 μM of DZNep (3-Deazaneplanocin A) for 96 h after which cells were harvested and used in invasion assays and Western blot.” left out

## miR-141: miR-141 mirVana mimics (Life Technologies); microRNA-141 oligonucleotide may have SEQ ID NO: 1; in some experiments over-expressed by lentiviral vectors (UAACACUGUCUGGUAAAGAUGG; listed as RNA, further chemistry not given here) [miR-141 mirVana mimics (Life Technologies); in some experiments over-expressed by lentiviral vectors]
Prostate cancer tumors
  Ki-67+ cells: reduced
CD44hi PC3 cells
  lung metastasis: less
  primary tumors (size): smaller
[1]
  invasive capabilities: significantly inhibited
[2]; CD44+ Du145 cells, 30 nM, 48 h
  E-cadherin (CDH1) mRNA: significant increase
  mRNA levels of mesenchymal markers including VIM and ZEB1: generally reduced
[2]; bulk Du145 cells
  mRNA levels of most other EMT markers including FN, ZEB2, SNAI1, SNAI2, and TWIST: did not reduce
[2]; bulk Du145 cells, 30 nM, 48 h
  E-cadherin mRNA: increased
  VIM and ZEB1 mRNA: decreased
EZH2; miR-141 overexpression in prostate cancer cells
  EZH2 RNA level: significantly reduced
EZH2; miR-141 overexpression, PC3 and Du145, 30 or 60 nM, 72 h
  EZH2 protein level: significantly reduced
